Among the data in US8101648B2, “Hydroxybenzamide derivatives and their use as inhibitors of HSP90” (Astex Therapeutics, Ltd., priority 2005, dated 2012) are IC50 and Kd values, retold here.

Where a name gives a salt, the structure may show the parent alone. Read-outs that look alike come from different tables or passages of the source.

Test [1] concerns HCT116 cell line. Put plainly: Anti-proliferative activity, Alamar Blue assay. The class given is cell-based, human. How it is done: The anti-proliferative activities of compounds of the invention can be determined by measuring the ability of the compounds to inhibition of cell growth in a number of cell lines such as the human colon cancer cell line HCT116. […] The method is based on the ability of viable cells to reduce resazurin to its fluorescent product resorufin. […] The number of viable cells is determined by Alamar Blue assay as before. Cell lines can be obtained from the ECACC (European Collection of cell Cultures).

The target in test [2] is T1, human Hsp90α N-terminal domain (Homo sapiens, UniProt P07900).
T1 construct: Cloning, expression, and purification of the Human Hsp90α N-terminal domain were performed according to published methods; made in house
Put plainly: Isothermal titration calorimetry (ITC) binding. The conditions noted are these: 25 mM Tris, 100 mM NaCl, 1 mM MgCl2, 1 mM TCEP, 5% DMSO, pH 7.4. The method, then:
The ability of the compounds of the invention to bind to human Hsp90 proteins was determined using isothermal titration calorimetry.
Isothermal titration calorimetry (ITC) experiments were performed with a VP-ITC titration calorimeter (Microcal Inc., Northampton, Mass., USA). […] All solutions were filtered and degassed prior to a titration being carried out. The enthalpy change resulting from each injection of ligand was obtained through integration of the calorimetric signal. Data were analysed using Origin 7.0 (Microcal Software Inc., Northampton, Mass.). Heats of dilution were estimated using the final injections of each individual titration and subtracted before data fitting. Different ITC experimental formats were employed in order to obtain compound dissociation constants (Kd's) over a wide range of affinities. […] In this type of experiment the stoichiometry parameter (N) was locked at 1 for data fitting. […] For the majority of these experiments the protein concentration in the calorimetric cell was in the range […] and the ligand concentration in the injection syringe ranged from […].

Where [3] appears, read: HCT-116, human colon cancer cell line HCT116, 72 hours with compound, read-out: IC50.

In turn, `CC(C)c1cc(C(=O)N2Cc3ccccc3C2)c(O)cc1O` [Example 5] registered an IC50 in test [1] (Homo sapiens, HCT-116, 72 h) of under 1000 nM.

`CC(C)c1cc(C(=O)N2Cc3ccccc3C2)ccc1O` [Example 10, (1,3-Dihydro-isoindol-2-yl)-(4-hydroxy-3-isopropyl-phenyl)-methanone]: in test [2], the Kd was under 100 nM. On the same count and under the same terms, the same measure for `CC(C)(C)c1cc(C(=O)N2CCc3ccccc3C2)ccc1O` [Example 11, (3-tert-Butyl-4-hydroxy-phenyl)-(3,4-dihydro-1H-isoquinolin-2-yl)-methanone]: under 1000 nM. As to `O=C(c1cc(Br)c(O)cc1O)N1Cc2ccccc2C1` [Example 19, (5-Bromo-2,4-dihydroxy-phenyl)-(1,3-dihydro-isoindol-2-yl)-methanone], the IC50 in test [1] (setting [3]) was under 1000 nM.

`COCCOCCOc1cccc2c1CN(C(=O)c1cc(C(C)C)c(O)cc1O)C2` [Example 21, (2,4-Dihydroxy-5-isopropyl-phenyl)-{4-[2-(2-methoxy-ethoxy)-ethoxy]-1,3-dihydro-isoindol-2-yl}methanone]: in test [1] (setting [3]), the IC50 is under 1000 nM. The compound also registered a Kd in test [2] of under 100 nM. Consider `COc1cc2c(cc1Cl)CN(C(=O)c1cc(C(C)C)c(O)cc1O)C2` [Example 33, (5-chloro-6-methoxy-1,3-dihydro-iso-indol-2-yl)-(2,4-dihydroxy-5-isopropyl-phenyl)-methanone], for which the IC50 in test [1] (setting [3]) is under 1000 nM. Further, the Kd in test [2] was under 100 nM. For `CC(C)c1cc(C(=O)N2CC3CC2CO3)c(O)cc1O` (stereo not shown) [Example 37, (2,4-dihydroxy-5-isopropyl-phenyl)-(2-oxa-5-aza-bicyclo[2.2.1]hept-5-yl)-methanone] the same measures were under 1000 nM and under 100 nM. For `CC(C)c1cc(C(=O)N2CCc3ccccc3C2)c(O)cc1O` [Example 38, (3,4-dihydro-1H-isoquinolin-2-yl)-(2,4-dihydroxy-5-isopropyl-phenyl)-methanone] the same measures were under 1000 nM and under 100 nM.

Consider `CC(C)c1cc(C(=O)N2Cc3ccc(N)cc3C2)c(O)cc1O` [Example 39, (5-amino-1,3-dihydro-isoindol-2-yl)-(2,4-dihydroxy-5-isopropyl-phenyl)-methanone], for which the IC50 in test [1] (setting [3]) is under 1000 nM. This compound showed a Kd in test [2] of under 100 nM. The matching figures for `COc1ccc2c(c1)CN(C(=O)c1cc(C(C)C)c(O)cc1O)C2` [Example 40, (2,4-dihydroxy-5-isopropyl-phenyl)-(5-methoxy-1,3-dihydro-isoindol-2-yl)-methanone]: under 1000 nM and under 100 nM.

For `COC(=O)c1ccc2c(c1)CN(C(=O)c1cc(C(C)C)c(O)cc1O)C2` [Example 43, 2-(2,4-dihydroxy-5-isopropyl-benzoyl)-2,3-dihydro-1H-isoindole-5-carboxylic acid methyl ester], the IC50 in test [1] (setting [3]) was under 1000 nM. In test [2], this compound came in with a Kd of under 100 nM. `CC(C)c1cc(C(=O)N2Cc3ccc(C(=O)O)cc3C2)c(O)cc1O` [Example 44, 2-(2,4-dihydroxy-5-isopropyl-benzoyl)-2,3-dihydro-1H-isoindole-5-carboxylic acid] yielded an equilibrium dissociation constant (Kd) in test [2] of under 100 nM. For `CC(C)NCCOc1ccc2c(c1)CN(C(=O)c1cc(C(C)C)c(O)cc1O)C2` [Example 48, (2,4-dihydroxy-5-isopropyl-phenyl)-[5-(2-isopropylamino-ethoxy)-1,3-dihydro-isoindol-2-yl]-methanone], the concentration for half-maximal inhibition (IC50) in test [1] (setting [3]) is under 1000 nM. Moreover, the Kd in test [2] was under 100 nM. For `CC(C)c1cc(C(=O)N2Cc3ccc(OCCNC(=O)CN4CCOCC4)cc3C2)c(O)cc1O` [Example 49] the same measures were under 1000 nM and under 100 nM. The matching figures for `CC(C)c1cc(C(=O)N2Cc3ccc(N4CCC(N5CCN(C)CC5)CC4)cc3C2)c(O)cc1O` [Example 51, (2,4-dihydroxy-5-isopropyl-phenyl)-{5-[4-(4-methyl-piperazin-1-yl)-piperidin-1-yl]-1,3-dihydro-isoindol-2-yl}-methanone]: under 1000 nM and under 100 nM. For `CC(C)c1cc(C(=O)N2Cc3ccc(-c4ccc(N5CCNCC5)cc4)cc3C2)c(O)cc1O` [Example 52, (2,4-dihydroxy-5-isopropyl-phenyl)-[5-(4-piperazin-1-yl-phenyl)-1,3-dihydro-isoindol-2-yl]-methanone], the IC50 in test [1] (setting [3]) was under 1000 nM. This compound also came in with a Kd in test [2] of under 1000 nM. `CC(C)c1cc(C(=O)N2Cc3ccc(C(=O)N4CCNCC4)cc3C2)c(O)cc1O` [Example 54, (2,4-dihydroxy-5-isopropyl-phenyl)-[5-(piperazine-1-carbonyl)-1,3-dihydro-isoindol-2-yl]-methanone hydrochloride] had an IC50 in test [1] (Homo sapiens, HCT-116, 72 h) of under 1000 nM. In test [2], the Kd is under 100 nM.

Regarding `CC(C)c1cc(C(=O)N2Cc3ccc(CN4CCN(C)CC4)cc3C2)c(O)cc1O` [Example 55, (2,4-dihydroxy-5-isopropyl-phenyl)-[5-(4-methyl-piperazin-1-ylmethyl)-1,3-dihydro-isoindol-2-yl]-methanone], the IC50 in test [1] (setting [3]) is under 1000 nM. This compound gave a Kd in test [2] of under 100 nM.

In the case of `CC(C)c1cc(C(=O)N2Cc3ccc(N4CCN(CCO)CC4)cc3C2)c(O)cc1O` [Example 59, (2,4-Dihydroxy-5-isopropyl-phenyl)-{5-[4-(2-hydroxy-ethyl)-piperazin-1-yl]-1,3-dihydro-isoindol-2-yl}-methanone], the IC50 in test [1] (setting [3]) is under 1000 nM. The Kd in test [2] was under 100 nM. For `CC(C)c1cc(C(=O)N2Cc3ccc(N4CCC(N5CCOCC5)CC4)cc3C2)c(O)cc1O` [Example 60, (2,4-Dihydroxy-5-isopropyl-phenyl)-[5-(4-morpholin-4-yl-piperidin-1-yl)-1,3-dihydro-isoindol-2-yl]-methanone] the same measures were under 1000 nM and under 100 nM.

Take `CC(C)c1cc(C(=O)N2Cc3ccc(N4CCN(C(C)C)CC4)cc3C2)c(O)cc1O` [Example 62, (2,4-Dihydroxy-5-isopropyl-phenyl)-[5-(4-isopropyl-piperazin-1-yl)-1,3-dihydro-isoindol-2-yl]-methanone]: the IC50 in test [1] (setting [3]) is under 1000 nM. In test [2], the Kd was under 100 nM. For `CC(C)c1cc(C(=O)N2Cc3cccc(NC4CCNCC4)c3C2)c(O)cc1O` [Example 67, (2,4-dihydroxy-5-isopropyl-phenyl)-[4-(piperidin-4-ylamino)-1,3-dihydro-isoindol-2-yl]-methanone] the same measures were under 1000 nM and under 100 nM. The matching figures for `CC(C)c1cc(C(=O)N2Cc3ccc(CN4CCCCC4)cc3C2)c(O)cc1O` [Example 72, (2,4-Dihydroxy-5-isopropyl-phenyl)-(5-piperidin-1-ylmethyl-1,3-dihydro-isoindol-2-yl)-methanone]: under 1000 nM and under 100 nM. The compound `CC(C)c1cc(C(=O)N2Cc3ccc(C4(O)CCNCC4)cc3C2)c(O)cc1O` [Example 73, (2,4-Dihydroxy-5-isopropyl-phenyl)-[5-(4-hydroxypiperidin-4-yl)-1,3-dihydro-isoindol-2-yl]-methanone] displayed a Kd in test [2] of under 100 nM. As to `CC(C)c1cc(C(=O)N2Cc3cc(O)c(Cl)cc3C2)c(O)cc1O` [Example 74, (5-chloro-6-hydroxy-1,3-dihydro-isoindol-dihydroxy-5-isopropyl-phenyl)-methanone], in test [1] (setting [3]), the IC50 was under 1000 nM. In addition, in test [2], the Kd was under 100 nM. The matching figures for `CN1CCN(c2ccc3c(c2)CN(C(=O)c2cc(Cl)c(O)cc2O)C3)CC1` [Example 75, (5-Chloro-2,4-dihydroxy-phenyl)-[5-(4-methyl-piperazin-1-yl)-1,3-dihydro-isoindol-2-yl]-methanone]: under 1000 nM and under 100 nM.
